Assay results taken from US20230193262A1, “Nucleic acid molecules capable of modulating target gene expression and uses thereof” (KOREA ADVANCED INSTITUTE OF SCIENCE AND TECHNOLOGY, priority 2021, published 2023).
Entries after “also recorded” stand apart in the source; their conditions may differ. In the oligonucleotide strings, read from the 5' end, every base follows the letter of its sugar. An asterisk marks phosphorothioate; unmarked linkages are phosphodiester. Other units and linkages are bracketed, terminal groups are in braces. A string of capitals states the bases alone. d = 2'-deoxy (DNA)

Columns and labels:
Type in all cases: cell-based
[1] = tested on: miR-155; experiment: miR-155 expression after treatment with AML therapeutic agents; settings: FLT3-ITD mutated AML cell line (NOLM-14); IC50 dose, 37° C., 72 hours
Experimental: The FLT3-ITD mutated AML cell line (NOLM-14) was treated with an IC50 dose of cytarabine, azacitidine, decitabine, venetoclax, or gilteritinib, which is used as standard therapeutic agents for AML, at 37° C. for 72 hours, followed by measuring expression levels of miR-155.

[2] = tested on: cells; experiment: Cytotoxicity (CCK-8 cell viability) of chemically modified miRNA triggers
Experimental: (§1) The miRNA triggers were assayed for cytotoxicity and apoptosis induction, using the CCK-8 (Cell Counting Kit-8) (Dojindo, Kumamoto, Japan) according to the manufacturer's instruction. Cells were incubated in 96-well plates (5×10^3 cells/well) at 37° C. for 24 hours under a 5% CO2 atmosphere, followed by transfection. Three days after transfection, the medium was removed. A 10-fold dilution of CCK-8 solution in DMEM was added to the cells which were then incubated at 37° C. for 2 hours. After incubation, absorbance was read at 450 nm on Tecan Infinite M200 pro microplate reader (Mnnedorf, Switzerland).
In addition, FPS HP and 2′-OMe HP, which were the most resistant to degradation in biological samples, were analyzed for cytotoxicity. In this regard, the HP in which the entire nucleotides of miRNA trigger (LP) were modified with PS (expressed as PS in Table 6 and FIG. 6), the linear probe in which the entire nucleotides of miRNA trigger (LP) were modified with 2′-O-Me (expressed as 2′O-me in Table 6 and FIG. 6), the control DNA LP (expressed as DNA in Table 6 and FIG. 6), or siRNA was transfected into cells which were then measured for cell viability using the method of Reference Example 9. The result is depicted in FIG. 6. […]

[3] = tested on: breast cancer cell line MDA-MB-453; experiment: Cell viability / apoptosis in MDA-MB-453; settings: MDA-MB-453 (does not express miR-222)
Experimental: as §1
(§2) The selected linear miRNA triggers (bcl-xL(1)_22_2222 and bcl-xL(2)_222_222) were transfected into the breast cancer cell line MDA-MB-453 to which miR-222 is not endogenous. Cell viability, and the mRNA and protein expression levels of the target gene (bcl-xL) were measured and the results are depicted in FIGS. 33a to 33c.
The hairpin miRNA triggers prepared above were transfected into MDA-MB-231 and MDA-MB-453 cells which were then measured for cell viability. The results are depicted in FIG. 37.
The MCL-1-222-222 miRNA trigger, which utilizes miR-222 to regulate MCL-1 gene, and the BCL-xL-let7f-let7f miRNA trigger, which utilizes miR-let7f to regulate BCL-xL gene, were administered to MDA-MB-231 and MDA-MB-453.
Next, apoptosis was examined when the two types of miRNA triggers were co-administered to cells. The total concentration of the two triggers was 120 nM, which was the same as for individual miRNAs. The results are depicted in FIG. 47.

[4] = tested on: Bcl-xL; experiment: Western blot of Bcl-xL protein; settings: MDA-MB-453
Experimental: miRNA triggers were transfected into cells in the same manner as in Reference Example 4. After 72 hours, the cells were collected using a cell scraper and lysed with a RIPA buffer (NaCl 150 mM, EDTA 5 mM, Tris 50 mM, NP-40 1.0%, sodium deoxycholate 0.5%, SDS 0.1%). The cell lysate was sonicated 15 times, each for 20 sec, with a halt for 30 sec every sonication. Following centrifugation at 5,000 g for 5 min, the supernatant was taken and used to extract proteins therefrom. A total of 30-40 μg of protein sample was separated in 10-15% SDS-PAGE gel and transferred onto a PVDF membrane through a semi-dry blotting system. The membrane was blocked for 1 hour in 5% skimmed milk and incubated for 2 hours with a 1,000-fold dilution of a primary antibody in, 1% skimmed milk. […] The membrane incubated with the secondary antibody was washed three times with 1×PBST for 10 min each wash, and then reacted with Clarity Western ECL Substrate (#1705061, Bio-Rad), after which images were obtained and analyzed using ChemiDoc (Bio-rad, Hercules, USA).
The cells transfected with the selected miRNA triggers were measured for protein expression levels of the target Bcl-xL and the apoptotic marker cleaved PARP through western blotting, and the results are depicted in FIG. 32b. […]

[5] = tested on: BCL-xL mRNA; experiment: bcl-xL mRNA expression / gene regulation efficiency; settings: MDA-MB-453
Experimental: In the same manner as in Reference Example 4, miRNA triggers were transfected into cells. After 48 hours, total RNA was extracted using TRIzol (Thermo Fisher Scientific) according to the manufacturer's instruction. The purified RNA was treated with DNase I and then reverse transcribed in the presence of RevertAid reverse transcriptase (Thermo Fisher Scientific), with random hexamers (Thermo Fisher Scientific) serving as primers. For use in amplification of target genes, primers for target genes were added, together with the cDNA, to the SYBR Green PCR master mix (Thermo Fisher Scientific). RT-qPCR was conducted on a StepOnePlus real-time PCR system. Cq values obtained from this analysis was quantitatively analyzed based on the 2^−ΔΔC(t) method.
as §2
After treatment with miRNA triggers, mRNA expression levels of the target gene BCL-xL were measured. […]

[6] = tested on: GFP mRNA; experiment: GFP fluorescence intensity in GFP-expressing Hela-141 cells; settings: siGFP compared to siLuc, trigger 30 to 60 nM
Description: A GFP fluorescent protein-expressing plasmid (used in Chen L L, DeCerbo J N, Carmichael G G. 2008. Alu element-mediated gene silencing. EMBO J 27: 1694-1705) was transfected into Hela-141 cells to prepare GFP-expressing Hela-141 cells. As stated in Reference Example 1, a linear miRNA trigger (LP; GFP_141_141), which can target GFP mRNA (=complementarily bind to GFP mRNA to regulate the expression of GFP) and complementarily bind to miR-141, and siRNAs which target GFP and Luc (Luciferase), respectively, were synthesized in Bioneer Inc. Sequences of the LP and siRNAs and types and positions of chemical modifications in each sequence are listed in Table 8, below.
Above all, siLuc and siGFP were transfected into the GFP-expressing Hela-141 cells which were then measured for fluorescence intensity on an ELISA reader. […] In addition, the linear miRNA trigger (GFP(1)_141_141) was transfected into the GFP-expressing Hela-141 cells which were then measured for fluorescence intensity. The result is depicted in FIG. 8. For the transfection, the GFP plasmid and GFP_141_141 were used at a concentration of 0.5 to 1 μg/ml and 30 to 60 nM, respectively.

[7] = tested on: Hela cells; experiment: Cell viability / apoptosis (CCK-8) in Hela cells
Experimental: as §1
(§3) The linear miRNA triggers or siRNAs (siLuc and siMcl-1) prepared above were transfected into Hela, Hela-141, and Hela-200c cells which were then measured for cell viability. The results are depicted in FIG. 15.
(§4) The hairpin miRNA triggers prepared above were transfected into Hela and Hela-141 cells which were then assayed for apoptosis. As a control, the siRNA (siMcl-1; Table 14) which can repress the expression of mcl-1 was transfected to Hela and Hela-141 cells and measured for apoptotic activity.

[8] = tested on: Hela-141 cells; experiment: Cell viability / apoptosis (CCK-8) in Hela-141 cells; settings: Hela-141 cells
Experimental: as §1, §3, §4

[9] = tested on: Hela-200c cells; experiment: Cell viability / apoptosis (CCK-8) in Hela-200c cells
Experimental: as §1, §3

[10] = tested on: MCF-7 breast cancer cells; experiment: Cell viability / apoptosis in MCF-7; settings: single siRNA, final concentration 60 nM
Experimental: as §1
An siRNA targeting bcl-2, bcl-xL, or mcl-1 was transfected into MCF-7 breast cancer cells and PANC-1 pancreatic cancer cells. By using qRT-PCR, establishment was made of a condition under which the expression of each target gene is decreased by 80% or more (transfection was performed at a concentration of 60 nM with the aid of Lipofectamine). As a negative control, a Luc (Luciferase)-targeting siRNA (siLuc) was used. Under the same condition of decreasing the expression of each target gene by 80% or more, the cells transfected with the siRNAs were measured for apoptosis, and the results are depicted in FIGS. 14a and 14b.
Linear miRNA triggers that could bind to miR-141 or let7f and target bcl-xL or mcl-1 were prepared and transfected alone or in combination into the breast cancer cell line MCF-7 which was then measured for cell viability. Every nucleotide of the triggers and controls was chemically modified with 2′-OMe.
First, MCF-7 was measured for cell viability after treatment with siMCL-1, siBCL-xL, and siBCL-2 (FIG. 48). […] The final concentration of the siRNAs was 60 nM.
Next, examination was made of the apoptosis when two or more genes were regulated together. MCF-7 was measured for cell viability after treatment with siMCL-1+siBCL-xL, siMCL-1+siBCL-2, siBCL-xL+siBCL-2, and siMCL-1+siBCL-xL+siBCL-2 (FIG. 49).
Finally, experiments under all the conditions (individual and simultaneous regulation) were conducted simultaneously so as to compare effects thereof. […]

Molecule: Nc1ncn([C@@H]2O[C@H](CO)[C@@H](O)[C@H]2O)c(=O)n1 [azacitidine]
- miR-155 expression [1]: did not repress miR-155 express

Molecule: PS: miRNA trigger (LP), entire nucleotides modified with PS, random sequences; SEQ ID NO 37 (dT*dC*dG*dA*dA*dG*dT*dA*dC*dT*dC*dA*dG*dC*dG*dT*dA*dA*dG*dT*dT*dC*dG*dA*dA*dG*dT*dA*dC*dT*dC*dA*dG*dC*dG*dT*dA*dA*dG*dT*dT*dC*dG*dA*dA*dG*dT*dA*dC*dT*dC*dA*dG*dC*dG*dT*dA*dA*dG*dT)
- cell viability ([2]; transfected cells, CCK-8, random sequences): less than 40%

Molecule: 2′-O-Me: linear probe, entire nucleotides modified with 2′-O-Me; SEQ ID NO 38 (UCGAAGUACUCAGCGUAAGUUCGAAGUACUCAGCGUAAGUUCGAAGUACUCAGCGUAAGU; all 2'-O-methyl, backbone not given here)
- cell viability versus non-transfected negative control (NT) ([2]; CCK-8): not significantly different in viability from the negative control

Molecule: bcl-xL(2)_222_222: linear miRNA trigger binding miR-222 and knocking down bcl-xL; SEQ ID NO 107 (ACCCAGUAGCCAGAUGUAGCUACCCAGUAGCCAGAUGUAGCUUACCUGCCAGCCUCCUU; all 2'-O-methyl, backbone not given here)
- cell viability [3]: did not significantly change
- protein expression level of target bcl-xL [4]: did not significantly change
- mRNA expression level of target bcl-xL [5]: did not significantly change

Molecule: siGFP: siRNA which targets GFP; SEQ ID NO 44 (UUAUGUUUCAGGUUCAGGG; RNA, backbone not given here) [reference compound]
- GFP fluorescence intensity [6]: significantly reduced fluorescence intensity

Molecule: siMcl-1: siRNA targeting mcl-1; SEQ ID NO 64 (AAAUUCGAUACUUCCUUCG; listed as RNA, chemistry not given here) [reference compound]
- apoptosis / cell viability [7]: induced apoptosis; also recorded: apoptotic effect
- apoptosis / cell viability [8]: induced apoptosis; also recorded: apoptotic effect
- apoptosis / cell viability [9]: induced apoptosis
- apoptosis (cell viability) [10]: apoptosis was detected; also recorded: greatest apoptosis

Molecule: siBcl-xL: siRNA targeting bcl-xL; SEQ ID NO 63 (UUGGUCCCUCAGUAUGGUC; listed as RNA, chemistry not given here)
- apoptosis (cell viability) [10]: apoptosis was detected

Molecule: Nc1ccn([C@@H]2O[C@H](CO)[C@@H](O)[C@@H]2O)c(=O)n1 [cytarabine]
- miR-155 expression [1]: did not repress miR-155 express

B1: GFP(1)_141_141: linear miRNA trigger targeting GFP mRNA and binding miR-141; SEQ ID NO 41 (nucleic acid)
chain: CCAUCUUUACCUCACAGUGUUACCAUCUUUACCUCACAGUGUUAUUAUGUUUCAGGUUCAGGGGGA
modifications: all 2'-O-methyl, backbone not given here
- GFP fluorescence intensity [6]: reduced GFP fluorescence intensity in a dose-dependent manner
